The source of these data is patent EP4737449A1 (Changchun Genescience Pharmaceutical Co., Ltd., priority 2023, dated 2025).

The target in one assay is T1, p53-Y220C mutant protein (Homo sapiens, UniProt P04637, Y220C).
T1 construct: The recombinant Y220C p53 DBD protein with his-tag
The assay can be described thus: In vitro DNA binding activity assay (TR-FRET). Format: biochemical. Conditions: concentration required to increase the binding activity of protein to DNA by 50%. The gist of the method: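 His-tagged Y220C p53 DBD was equilibrated with compound 60 min at room temperature, then biotin-DNA, anti-6His-Eu and streptavidin-d2 were added and incubated overnight in the dark. TR-FRET 665/615 nm ratio, background-corrected, was expressed as % activity versus vehicle; SC150 is the concentration raising DNA binding by 50%.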

The next assay deals with NUGC-3 cells. In words: NUGC-3 cell proliferation assay (CTG, 7 days). Format: cell-based, human. The procedure: The cells were cultured in strict accordance with ATCC requirements.
Cell culture medium: 1640 culture medium, 10% serum, 1% penicillin + streptomycin.
Culture conditions: 37°C, 95% air, 5% carbon dioxide.
Compounds (20 mM) were subjected to gradient dilution in DMSO: 10 gradients, 3-fold dilution, duplicate wells.
Positive and negative controls (100% dimethyl sulfoxide) were prepared.
The compounds that were gradient diluted with DMSO and positive and negative controls (1st and 2nd step), each 75 nL, were transferred to 384-well cell culture plates by Echo550.
The cells were washed twice with PBS, digested with trypsin, and centrifuged for cell counting.
The experiment can only be carried out when the cell viability is above 90%.
The cells were plated into 384-well cell culture plates, with 200 (NUGC-3) cells and 30 µL of culture medium per well.
The 384-well microplate was placed in a cell culture incubator for 7 days.
30 µL of CTG detection reagent was added to the 384-well microplate.
The 384-well microplate was incubated for 30 min at 37°C, 5% carbon dioxide in the dark.
The reading was performed by a multi-functional microplate reader Envision.
% Inhibition is calculated as follows: % Inhibition = 100−(Signalcmpd−SignalAve_BL)/(SignalAve_VC−SignalAve_BL)*100 [formula] • Signalcmpd: Average signal of the compound in the cell plate • Signalave_vc: Average signal of the negative control in the cell plate • Signalave_BL: Average signal of the blank wells in the cell plate
IC50 was calculated by fitting % inhibition and compound concentration logarithmically to a nonlinear regression (dose response - variable slope) using Graphpad 8.0. Table 2 IC50 of selected compounds in NUGC-3 cell proliferation assay

Setting [1] is: Homo sapiens, NUGC-3, 168 h, NUGC-3 cell proliferation, 7 days, CTG, read-out: IC50.

Structures are written as SMILES. Where a name gives a salt, the structure may show the parent alone. Read-outs that look alike come from different tables or passages of the source.

Take `CN1CC[C@@H](Nc2cccc3c(CC(F)(F)F)c(C#CCNC(=O)c4cnn5c4CCC5)nn23)[C@@H](F)C1` [Compound 231, N-[3-(7-{[(3S,4R)-3-fluoro-1-methylpiperidin-4-yl]amino}-3-(2,2,2-trifluoroethyl)pyrazolo[1,5-a]pyridin-2-yl)prop-2-yn-1-yl]-5,6-dihydro-4H-pyrrolo[1,2-b]pyrazole-3-carboxamide]: the SC150 on p53-Y220C mutant protein is given as 19 nM. Also, the concentration for half-maximal inhibition (IC50) with NUGC-3 cells (setting [1]) was 724 nM.

`CN1CC[C@@H](Nc2cccc3c(CC(F)(F)F)c(C#CCNC(=O)c4ccc(N5CCC5)nc4)nn23)[C@@H](F)C1` [Compound 314, 6-(azetidin-1-yl)-N-[3-(7-{[(3S,4R)-3-fluoro-1-methylpiperidin-4-yl]amino}-3-(2,2,2-trifluoroethyl)pyrazolo[1,5-a]pyridin-2-yl)prop-2-yn-1-yl]-3-nicotinamide]: at p53-Y220C mutant protein, the SC150 came out at 35 nM. Further, the IC50 with NUGC-3 cells (setting [1]) was determined as 1200 nM.

The compound `CN1CC[C@@H](Nc2cccc3c(CC(F)(F)F)c(C#CCNC(=O)c4ccc(N(C)C)nc4)nn23)[C@@H](F)C1` [Compound 328, 6-dimethylamino-N-[3-(7-{[(3S,4R)-3-fluoro-1-methylpiperidin-4-yl]amino}-3-(2,2,2-trifluoroethyl)pyrazolo[1,5-a]pyridin-2-yl)prop-2-yn-1-yl]pyridine-3-carboxamide] yielded an SC150 at p53-Y220C mutant protein of 30 nM. Besides, the IC50 in the assay on NUGC-3 cells (setting [1]) turned out to be 1210 nM.

On p53-Y220C mutant protein, `CN1CC[C@@H](Nc2cccc3c(CC(F)(F)F)c(C#CCNC(=O)c4cnn(CC5CC5)c4N)nn23)[C@@H](F)C1` [Compound 292] gave an SC150 of 8 nM. In the assay on NUGC-3 cells (Homo sapiens, NUGC-3, 168 h), this compound showed an IC50 of 214 nM.

Compound `CN1CC[C@@H](Nc2cccc3c(CC(F)(F)F)c(C#CCNC(=O)c4ccc(N)nc4)nn23)[C@@H](F)C1` [Compound 296, 6-amino-N-[3-(7-{[(3S,4R)-3-fluoro-1-methylpiperidin-4-yl]amino}-3-(2,2,2-trifluoroethyl)pyrazolo[1,5-a]pyridin-2-yl)prop-2-yn-1-yl]nicotinamide] had an SC150 at p53-Y220C mutant protein of 21 nM. Also, the IC50 with NUGC-3 cells (setting [1]) worked out at 1230 nM.

`CN1CC[C@@H](Nc2cccc3c(CC(F)(F)F)c(C#CCNC(=O)c4ccn(C)c4)nn23)[C@@H](F)C1` [Compound 270, N-[3-(7-{[(3S,4R)-3-fluoro-1-methylpiperidin-4-yl]amino}-3-(2,2,2-trifluoroethyl)pyrazolo[1,5-a]pyridin-2-yl)prop-2-yn-1-yl]-1-methyl-1H-pyrrole-3-carboxamide] yielded an SC150 at p53-Y220C mutant protein of 13 nM. The IC50 in the assay on NUGC-3 cells (setting [1]) amounted to 818 nM.

Compound `CC(C)(C)n1ncc(C(=O)NCC#Cc2nn3c(N[C@@H]4CCNC[C@@H]4F)cccc3c2CC(F)(F)F)c1N` [Compound 353-4, 5-amino-1-tert-butyl-N-[3-(7-{[(3S,4R)-3-fluoropiperidin-4-yl]amino}-3-(2,2,2-trifluoroethyl)pyrazolo[1,5-a]pyridin-2-yl)prop-2-yn-1-yl]-1H-pyrazole-4-carboxamide] returned an SC150 on p53-Y220C mutant protein of 9 nM. Also, the IC50 in the assay with NUGC-3 cells (setting [1]) was 181 nM.

At p53-Y220C mutant protein, `CC(C1CC1)n1ncc(C(=O)NCC#Cc2nn3c(N[C@@H]4CCN(C)C[C@@H]4F)cccc3c2CC(F)(F)F)c1N` (single isomer, unassigned) [Compound 291B] registered an SC150 of 4 nM. Also, the IC50 in the assay on NUGC-3 cells (NUGC-3 cell proliferation, 7 days, CTG, read-out: IC50) amounted to 162 nM.

The compound `CN1CC[C@@H](Nc2cccc3c(CC(F)(F)F)c(C#CCNC(=O)c4ccn(C5(C)CC5)c4)nn23)[C@@H](F)C1` [Compound 313, N-[3-(7-{[(3S,4R)-3-fluoro-1-methylpiperidin-4-yl]amino}-3-(2,2,2-trifluoroethyl)pyrazolo[1,5-a]pyridin-2-yl)prop-2-yn-1-yl]-1-(1-methylcyclopropyl)-1H-pyrrole-3-carboxamide] yielded an SC150 at p53-Y220C mutant protein of 28 nM. In addition, the half-inhibitory concentration (IC50) in the assay with NUGC-3 cells (setting [1]) is 1370 nM.

Take `CN1CC[C@@H](Nc2cccc3c(CC(F)(F)F)c(C#CCNC(=O)c4cc5n(c4)CCC5)nn23)[C@@H](F)C1` [Compound 260, N-[3-(7-{[(3S,4R)-3-fluoro-1-methylpiperidin-4-yl]amino}-3-(2,2,2-trifluoroethyl)pyrazolo[1,5-a]pyridin-2-yl)prop-2-yn-1-yl]-2,3-dihydro-1H-pyrrolizine-6-carboxamide]: the SC150 on p53-Y220C mutant protein is 18 nM. Also, in the assay with NUGC-3 cells (setting [1]), the IC50 worked out at 1190 nM.

For the compound `CC(C)n1ncc(C(=O)NCC#Cc2nn3c(N[C@@H]4CCN(C)C[C@@H]4F)cccc3c2CC(F)(F)F)c1N` [Compound 306, 5-amino-N-[3-(7-{[(3S,4R)-3-fluoro-1-methylpiperidin-4-yl]amino}-3-(2,2,2-trifluoroethyl)pyrazolo[1,5-a]pyridin-2-yl)prop-2-yn-1-yl]-1-isopropyl-1H-pyrazole-4-carboxamide], on p53-Y220C mutant protein, the SC150 is on record as 6 nM. Moreover, the IC50 with NUGC-3 cells (setting [1]) came out at 142 nM.

As for `Cc1nc(C(=O)NCC#Cc2nn3c(N[C@@H]4CCN(C)C[C@@H]4F)cccc3c2CC(F)(F)F)cn1C` [Compound 318, N-[3-(7-{[(3S,4R)-3-fluoro-1-methylpiperidin-4-yl]amino}-3-(2,2,2-trifluoroethyl)pyrazolo[1,5-a]pyridin-2-yl)prop-2-yn-1-yl]-1,2-dimethyl-1H-imidazole-4-carboxamide], the SC150 on p53-Y220C mutant protein was found to be 59 nM. The IC50 in the assay on NUGC-3 cells (setting [1]) is 1700 nM.

The compound `Cc1cc(C(=O)NCC#Cc2nn3c(N[C@@H]4CCN(C)C[C@@H]4F)cccc3c2CC(F)(F)F)[nH]c1C` [Compound 317, N-[3-(7-{[(3S,4R)-3-fluoro-1-methylpiperidin-4-yl]amino}-3-(2,2,2-trifluoroethyl)pyrazolo[1,5-a]pyridin-2-yl)prop-2-yn-1-yl]-4,5-dimethyl-1H-pyrrole-2-carboxamide] came in with an SC150 at p53-Y220C mutant protein of 44 nM. The IC50 in the assay with NUGC-3 cells (setting [1]) stood at 1290 nM.

In the case of `Cc1ccc(C(=O)NCC#Cc2nn3c(N[C@@H]4CCN(C)C[C@@H]4F)cccc3c2CC(F)(F)F)cn1` [Compound 332, N-[3-(7-{[(3S,4R)-3-fluoro-1-methylpiperidin-4-yl]amino}-3-(2,2,2-trifluoroethyl)pyrazolo[1,5-a]pyridin-2-yl)prop-2-yn-1-yl]-6-methylnicotinamide], the SC150 on p53-Y220C mutant protein is 29 nM. The IC50 in the assay on NUGC-3 cells (setting [1]) worked out at 1710 nM.

On to `CN1CC[C@@H](Nc2cccc3c(CC(F)(F)F)c(C#CCNC(=O)c4ccn(C5CC5)c4)nn23)[C@@H](F)C1` [Compound 280, 1-cycloproyl-N-[3-(7-{[(3S,4R)-3-fluoro-1-methylpiperidin-4-yl]amino}-3-(2,2,2-ethyl trifluoroacetate)pyrazolo[1,5-a]pyridin-2-yl)-prop-2-yn-1-yl]-1H-pyrrole-3-carboxamide], for which the SC150 at p53-Y220C mutant protein is on record as 16 nM. In the assay on NUGC-3 cells (Homo sapiens, NUGC-3, 168 h), this compound displayed an IC50 of 1060 nM.

On p53-Y220C mutant protein, `CN1CC[C@@H](Nc2cccc3c(CC(F)(F)F)c(C#CCNC(=O)c4cc(C#N)n(C)c4)nn23)[C@@H](F)C1` [Compound 271, 5-cyano-N-[3-(7-{[(3S,4R)-3-fluoro-1-methylpiperidin-4-yl]amino}-3-(2,2,2-trifluoroethyl)pyrazolo[1,5-a]pyridin-2-yl)prop-2-yn-1-yl]-1-methyl-1H-pyrrole-3-carboxamide] registered an SC150 of 23 nM. Further, the IC50 in the assay with NUGC-3 cells (setting [1]) worked out at 936 nM.

For `CN1CC[C@@H](Nc2cccc3c(CC(F)(F)F)c(C#CCNC(=O)c4cnn(C(C)(C)C5CC5)c4N)nn23)[C@@H](F)C1` [Compound 290, 5-amino-1-(2-cyclopropylprop-2-yl)-N-[3-(7-{[(3S,4R)-3-fluoro-1-methylpiperidin-4-yl]amino}-3-(2,2,2-trifluoroethyl)pyrazolo[1,5-a]pyridin-2-yl)prop-2-yn-1-yl]-1H-pyrazole-4-carboxamide], the SC150 at p53-Y220C mutant protein came out at 11 nM. The IC50 in the assay with NUGC-3 cells (setting [1]) is 355 nM.

`CN(C)C1CC[C@@H](Nc2cccc3c(CC(F)(F)F)c(C#CCNC(=O)c4cnn(C(C)(C)C)c4N)nn23)[C@@H](F)C1` (single isomer, unassigned) [Compound 358-A] yielded an SC150 at p53-Y220C mutant protein of 2 nM. For the same compound, the IC50 in the assay on NUGC-3 cells (setting [1]) stood at 123 nM.

`CN1CC[C@@H](Nc2cccc3c(CC(F)(F)F)c(C#CCNC(=O)c4cc(F)n(C)c4)nn23)[C@@H](F)C1` [Compound 312, 5-fluoro-N-[3-(7-{[(3S,4R)-3-fluoro-1-methylpiperidin-4-yl]amino}-3-(2,2,2-trifluoroethyl)pyrazolo[1,5-a]pyridin-2-yl)prop-2-yn-1-yl]-1-methyl-1H-pyrrole-3-carboxamide] displayed an SC150 on p53-Y220C mutant protein of 19 nM. For the same compound, the half-inhibitory concentration (IC50) with NUGC-3 cells (setting [1]) was determined as 1460 nM.

`CN1CC[C@@H](Nc2cccc3c(CC(F)(F)F)c(C#CCNC(=O)c4ccn5c4COCC5)nn23)[C@@H](F)C1` [Compound 301, N-[3-(7-{[(3S,4R)-3-fluoro-1-methylpiperidin-4-yl]amino}-3-(2,2,2-trifluoroethyl)pyrazolo[1,5-a]pyridin-2-yl)prop-2-yn-1-yl]-3,4-dihydro-1H-pyrrolo[2,1-c][1,4]oxazine-8-carboxamide]: on p53-Y220C mutant protein, the SC150 was 27 nM. Moreover, the IC50 with NUGC-3 cells (setting [1]) came to 1190 nM.
